Experimental findings from PubChem BioAssay (NCI) are described below.

Test systems include OVCAR-3 ovarian; EKVX NSCLC; MDA-MB-231 breast; MDA-MB-435; UO-31 renal; MDA-N; SF-539 CNS; OVCAR-5 ovarian; CCRF-CEM leukemia; OVCAR-4 ovarian; HOP-62 NSCLC; RXF 393 renal; HCT-116 colon; SNB-19 CNS; SR leukemia; MCF7 breast; RPMI-8226 leukemia; SK-OV-3 ovarian; NCI-H460 lung; ACHN renal.
What all share (assay): inhibition of tumour cell growth, NCI panel, 48 h

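96-well plates; 48 h exposure; 5 concentrations. Endpoints by linear interpolation between flanking doses. Not reached: highest tested concentration assigned. The concentration for full growth arrest is given as TGI.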

In the case of `Cc1c2ccnc(C(=O)NCCN(C)C)c2cc2c3cc(O)ccc3n(C)c12`, the TGI with OVCAR-3 ovarian stood at 2.77 µM; in the assay with EKVX NSCLC it was 5.18 µM; in the assay on MDA-MB-231 breast, 3.35 µM; with MDA-MB-435, 1.54 µM; in the assay on UO-31 renal, 4.11 µM; in the assay on MDA-N it was 1.93 µM. Also, the TGI stood at 1.3 µM with SF-539 CNS; 6.29 µM in the assay on OVCAR-5 ovarian; 0.24 µM in the assay on CCRF-CEM leukemia; 2.22 µM in the assay on OVCAR-4 ovarian; 2.16 µM in the assay on HOP-62 NSCLC; 2.31 µM in the assay on RXF 393 renal. The TGI in the assay on HCT-116 colon is 6.1 µM; with SNB-19 CNS, 5.16 µM; in the assay with SR leukemia, under 0.0564 µM; in the assay with MCF7 breast it was 5.75 µM; in the assay on RPMI-8226 leukemia, 1.14 µM; in the assay with SK-OV-3 ovarian, 1.65 µM. The TGI stood at 1.39 µM in the assay with NCI-H460 lung and 0.397 µM with ACHN renal.
Take `COc1cc(=O)c2c(O)c3c(O)oc(C)cc3c(OC)c2c1`: the TGI with OVCAR-3 ovarian was 59.1 µM; with EKVX NSCLC, 63.8 µM; in the assay with MDA-MB-231 breast it was 62.5 µM; in the assay on MDA-MB-435, 32.7 µM; in the assay with UO-31 renal it was over 100 µM; with MDA-N it was 80.6 µM. Moreover, the TGI in the assay with SF-539 CNS is 53.8 µM; with OVCAR-5 ovarian, 86.6 µM; in the assay with CCRF-CEM leukemia it was 52.6 µM; in the assay on OVCAR-4 ovarian, 27.9 µM; in the assay on HOP-62 NSCLC, 76.1 µM; with RXF 393 renal, over 100 µM. The TGI in the assay on HCT-116 colon is 38.4 µM; in the assay on SNB-19 CNS, over 100 µM; in the assay with SR leukemia, 64.2 µM; in the assay on MCF7 breast it was over 100 µM; in the assay on RPMI-8226 leukemia, 46.4 µM; with SK-OV-3 ovarian, 71.2 µM. Besides, the TGI in the assay on NCI-H460 lung was over 100 µM; in the assay on ACHN renal, 63 µM.
Take `COC(=O)CCC(C)[C@H]1CCC2C3C(C[C@H](OC(C)=O)[C@@]21C)[C@@]1(C)CCC2(C[C@H]1C[C@H]3OC(C)=O)OOC1(CCCC1)OO2` (stereo not given in full): the TGI in the assay on OVCAR-3 ovarian was over 100 µM; with EKVX NSCLC, 56.4 µM; with MDA-MB-231 breast, over 100 µM; in the assay with MDA-MB-435 it was over 100 µM; in the assay on UO-31 renal it was 27.8 µM; in the assay with MDA-N, over 100 µM. Moreover, the TGI in the assay on SF-539 CNS is over 100 µM; in the assay on OVCAR-5 ovarian, over 100 µM; in the assay with CCRF-CEM leukemia it was over 100 µM; with OVCAR-4 ovarian it was 87.6 µM; with HOP-62 NSCLC it was 29.9 µM; with RXF 393 renal, over 100 µM. The TGI in the assay with HCT-116 colon was over 100 µM; in the assay with SNB-19 CNS, over 100 µM; with SR leukemia, 15.4 µM; in the assay with MCF7 breast it was over 100 µM; in the assay on RPMI-8226 leukemia it was 9.44 µM; in the assay on SK-OV-3 ovarian, over 100 µM. For the same compound, the TGI in the assay on NCI-H460 lung and with ACHN renal was over 100 µM throughout.
Take `CC1(C)CC(O)C2=C(O1)C(=O)c1ncccc1C2=O` (stereo not given): the TGI with OVCAR-3 ovarian worked out at 5.4 µM; in the assay with EKVX NSCLC, 6.76 µM; in the assay with MDA-MB-231 breast, 5.92 µM; in the assay with MDA-MB-435 it was 3.3 µM; with UO-31 renal it was 4.34 µM; with MDA-N, 3.45 µM. Moreover, the TGI in the assay with SF-539 CNS is 3.28 µM; in the assay with OVCAR-5 ovarian, 3.72 µM; with CCRF-CEM leukemia, over 20.7 µM; in the assay on OVCAR-4 ovarian it was 3.15 µM; with HOP-62 NSCLC, 3.38 µM; with RXF 393 renal it was 12.3 µM. In addition, the TGI with HCT-116 colon is 5.76 µM; in the assay with SNB-19 CNS, 9.2 µM; in the assay with SR leukemia, over 19.8 µM; in the assay with MCF7 breast, 5.34 µM; in the assay with RPMI-8226 leukemia, over 22.6 µM; with SK-OV-3 ovarian it was 27.4 µM. Further, the figures for the TGI in the assay on NCI-H460 lung and in the assay on ACHN renal were 5.89 µM and 11.5 µM, respectively.
Turning to `CCCCCCCCCCCCCCCCCCNc1ccn(C2OC(COP(=O)(O)OCC3OC(n4cc(C)c(=O)[nH]c4=O)CC3F)C(O)C2O)c(=O)n1` (stereo not given), the TGI came to 50.5 µM in the assay with OVCAR-3 ovarian; 20.7 µM in the assay on EKVX NSCLC; 48.7 µM with MDA-MB-231 breast; 38.9 µM in the assay with MDA-MB-435; 43.6 µM with UO-31 renal; 38.9 µM in the assay with MDA-N. Further, the TGI came to 19.9 µM in the assay with SF-539 CNS; 6.48 µM in the assay on OVCAR-5 ovarian; 12.4 µM with CCRF-CEM leukemia; 42.5 µM in the assay on OVCAR-4 ovarian; 33.1 µM in the assay on HOP-62 NSCLC; 3.84 µM with RXF 393 renal. The TGI was 42.8 µM in the assay with HCT-116 colon; 14.1 µM in the assay on SNB-19 CNS; 5.14 µM with SR leukemia; over 64.5 µM with MCF7 breast; 12.9 µM in the assay with RPMI-8226 leukemia; 18 µM in the assay with SK-OV-3 ovarian. The TGI in the assay with NCI-H460 lung is 43.9 µM; in the assay with ACHN renal, over 57.1 µM.
`C1=NCCN2CCN(CCN=Cc3ccccc3OCc3cccc(n3)COc3ccccc31)CC2`: the TGI is 4.66 µM with OVCAR-3 ovarian; over 50 µM in the assay on EKVX NSCLC; 34 µM in the assay with MDA-MB-231 breast; 2.22 µM in the assay with MDA-MB-435; over 50 µM in the assay on UO-31 renal; 2.72 µM in the assay with MDA-N. In addition, the TGI is 14.1 µM in the assay on SF-539 CNS; 28.3 µM in the assay on OVCAR-5 ovarian; over 50 µM in the assay with CCRF-CEM leukemia; 26.6 µM in the assay on OVCAR-4 ovarian; over 50 µM in the assay with HOP-62 NSCLC; 4.68 µM in the assay on RXF 393 renal. Also, the TGI in the assay on HCT-116 colon was 18.8 µM; in the assay with SNB-19 CNS, over 50 µM; with SR leukemia, 15.4 µM; with MCF7 breast it was 9.29 µM; in the assay with RPMI-8226 leukemia, 19.1 µM; in the assay on SK-OV-3 ovarian it was over 50 µM. In addition, the TGI was over 50 µM in the assay with NCI-H460 lung and 25.6 µM in the assay on ACHN renal.
